Data reported in US10004732B2 (Novartis AG, priority 2014, dated 2018).

Tests used:
PI 3-kinase alpha [1] = molecular target: T1, PI 3-kinase alpha (Homo sapiens, UniProt P42336); assay: Kinase Glo Luminescent Kinase Assay (Kglo), assay A; format: biochemical; settings: read-out: Assay A PI3Kα IC50
Target sequence in this assay (P42336 whole entry): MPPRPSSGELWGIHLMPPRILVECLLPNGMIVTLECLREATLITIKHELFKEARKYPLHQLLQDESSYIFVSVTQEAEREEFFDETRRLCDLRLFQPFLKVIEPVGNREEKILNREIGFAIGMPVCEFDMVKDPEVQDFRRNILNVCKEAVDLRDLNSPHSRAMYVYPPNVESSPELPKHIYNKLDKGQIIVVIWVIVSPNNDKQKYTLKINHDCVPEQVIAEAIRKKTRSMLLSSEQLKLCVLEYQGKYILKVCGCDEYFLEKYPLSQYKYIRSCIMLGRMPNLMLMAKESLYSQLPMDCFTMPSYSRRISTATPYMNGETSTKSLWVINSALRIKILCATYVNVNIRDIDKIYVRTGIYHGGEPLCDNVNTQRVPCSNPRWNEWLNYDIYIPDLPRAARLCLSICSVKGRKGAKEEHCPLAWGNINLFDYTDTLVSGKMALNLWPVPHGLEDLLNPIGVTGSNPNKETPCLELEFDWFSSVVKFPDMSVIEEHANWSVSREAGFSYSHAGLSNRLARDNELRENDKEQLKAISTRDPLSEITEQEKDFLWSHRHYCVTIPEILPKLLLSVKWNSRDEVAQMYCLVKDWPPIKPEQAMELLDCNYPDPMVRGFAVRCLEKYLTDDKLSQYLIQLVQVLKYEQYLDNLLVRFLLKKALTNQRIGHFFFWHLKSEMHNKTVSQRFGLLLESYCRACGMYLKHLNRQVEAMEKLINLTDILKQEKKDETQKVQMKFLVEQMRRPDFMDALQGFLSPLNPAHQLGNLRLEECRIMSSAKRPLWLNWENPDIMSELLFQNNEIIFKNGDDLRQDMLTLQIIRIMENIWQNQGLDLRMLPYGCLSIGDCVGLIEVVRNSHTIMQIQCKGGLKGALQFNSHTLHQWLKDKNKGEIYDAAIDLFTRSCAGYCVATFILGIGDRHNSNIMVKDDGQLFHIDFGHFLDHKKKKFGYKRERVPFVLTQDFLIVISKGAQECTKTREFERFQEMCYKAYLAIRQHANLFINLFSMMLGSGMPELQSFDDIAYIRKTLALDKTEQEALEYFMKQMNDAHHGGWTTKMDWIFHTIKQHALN

PI 3-kinase beta [2] = molecular target: T2, PI 3-kinase beta (Homo sapiens, UniProt P42338); assay: Kinase Glo Luminescent Kinase Assay (Kglo), assay B; format: biochemical; settings: read-out: Assay B PI3Kβ IC50
Target sequence in this assay (P42338 whole entry): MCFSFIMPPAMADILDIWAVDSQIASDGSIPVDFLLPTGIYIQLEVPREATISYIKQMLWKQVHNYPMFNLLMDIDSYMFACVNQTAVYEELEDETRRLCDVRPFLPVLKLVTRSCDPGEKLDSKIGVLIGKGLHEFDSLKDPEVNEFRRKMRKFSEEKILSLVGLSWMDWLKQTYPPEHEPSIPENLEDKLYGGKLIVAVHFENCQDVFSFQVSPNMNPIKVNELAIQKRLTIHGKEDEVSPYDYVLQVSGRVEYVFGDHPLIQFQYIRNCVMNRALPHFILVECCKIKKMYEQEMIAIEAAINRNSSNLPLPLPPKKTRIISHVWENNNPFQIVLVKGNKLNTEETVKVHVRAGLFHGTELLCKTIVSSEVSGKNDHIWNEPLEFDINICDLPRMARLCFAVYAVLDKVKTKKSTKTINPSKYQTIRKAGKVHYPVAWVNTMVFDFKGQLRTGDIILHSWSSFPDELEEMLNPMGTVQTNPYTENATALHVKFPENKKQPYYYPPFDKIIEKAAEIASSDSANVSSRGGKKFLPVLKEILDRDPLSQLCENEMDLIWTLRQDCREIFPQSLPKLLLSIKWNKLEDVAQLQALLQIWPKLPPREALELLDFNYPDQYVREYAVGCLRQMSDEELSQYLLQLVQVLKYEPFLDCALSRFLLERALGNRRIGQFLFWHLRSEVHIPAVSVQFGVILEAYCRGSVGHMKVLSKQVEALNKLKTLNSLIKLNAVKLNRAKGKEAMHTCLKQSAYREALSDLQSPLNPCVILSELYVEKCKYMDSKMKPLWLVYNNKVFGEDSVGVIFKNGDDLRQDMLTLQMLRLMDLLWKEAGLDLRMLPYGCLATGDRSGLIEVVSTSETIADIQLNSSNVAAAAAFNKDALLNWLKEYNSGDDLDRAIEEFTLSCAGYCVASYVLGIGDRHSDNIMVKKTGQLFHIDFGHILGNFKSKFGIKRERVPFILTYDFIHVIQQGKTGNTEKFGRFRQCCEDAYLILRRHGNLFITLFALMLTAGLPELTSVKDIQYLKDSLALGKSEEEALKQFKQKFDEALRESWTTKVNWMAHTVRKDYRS
Target sequence in this assay (P27986 461-568 partner): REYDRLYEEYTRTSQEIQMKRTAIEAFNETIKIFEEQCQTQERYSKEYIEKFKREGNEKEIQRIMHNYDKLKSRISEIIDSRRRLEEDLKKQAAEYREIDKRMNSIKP

Vps34 = Vps34 (Homo sapiens, UniProt Q8NEB9); assay: Kinase Glo Luminescent Kinase Assay (Kglo), assay C; format: biochemical; settings: read-out: Assay C VPS34 IC50
Sequence of Vps34 (Q8NEB9 whole entry, species assumed): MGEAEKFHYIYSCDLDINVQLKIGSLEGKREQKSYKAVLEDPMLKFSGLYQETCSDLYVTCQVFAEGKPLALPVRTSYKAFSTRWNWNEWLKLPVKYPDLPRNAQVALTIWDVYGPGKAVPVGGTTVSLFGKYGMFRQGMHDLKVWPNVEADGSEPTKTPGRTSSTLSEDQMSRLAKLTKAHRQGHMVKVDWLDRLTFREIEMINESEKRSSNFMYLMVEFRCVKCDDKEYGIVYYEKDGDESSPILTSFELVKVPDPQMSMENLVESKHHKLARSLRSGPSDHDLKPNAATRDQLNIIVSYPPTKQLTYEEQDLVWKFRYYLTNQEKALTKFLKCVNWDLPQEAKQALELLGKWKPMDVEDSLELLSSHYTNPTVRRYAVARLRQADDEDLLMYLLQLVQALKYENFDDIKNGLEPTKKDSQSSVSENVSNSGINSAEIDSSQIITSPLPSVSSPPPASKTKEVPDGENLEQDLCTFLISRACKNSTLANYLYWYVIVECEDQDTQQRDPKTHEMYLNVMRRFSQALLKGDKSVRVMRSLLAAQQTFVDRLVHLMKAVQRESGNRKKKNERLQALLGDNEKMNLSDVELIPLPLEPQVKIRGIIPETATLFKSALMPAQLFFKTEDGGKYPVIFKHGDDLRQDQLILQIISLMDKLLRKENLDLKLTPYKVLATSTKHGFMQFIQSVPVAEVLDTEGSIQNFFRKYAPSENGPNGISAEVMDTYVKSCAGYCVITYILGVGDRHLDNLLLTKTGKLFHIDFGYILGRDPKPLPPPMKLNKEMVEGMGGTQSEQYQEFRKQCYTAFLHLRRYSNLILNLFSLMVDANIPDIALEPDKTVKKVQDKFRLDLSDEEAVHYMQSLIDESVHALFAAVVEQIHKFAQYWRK

PI 4-kinase beta = PI 4-kinase beta (Homo sapiens, UniProt Q9UBF8); assay: Kinase Glo Luminescent Kinase Assay (Kglo), assay D; format: biochemical; settings: read-out: Assay D PI4Kβ IC50
Sequence of PI 4-kinase beta (Q9UBF8 whole entry): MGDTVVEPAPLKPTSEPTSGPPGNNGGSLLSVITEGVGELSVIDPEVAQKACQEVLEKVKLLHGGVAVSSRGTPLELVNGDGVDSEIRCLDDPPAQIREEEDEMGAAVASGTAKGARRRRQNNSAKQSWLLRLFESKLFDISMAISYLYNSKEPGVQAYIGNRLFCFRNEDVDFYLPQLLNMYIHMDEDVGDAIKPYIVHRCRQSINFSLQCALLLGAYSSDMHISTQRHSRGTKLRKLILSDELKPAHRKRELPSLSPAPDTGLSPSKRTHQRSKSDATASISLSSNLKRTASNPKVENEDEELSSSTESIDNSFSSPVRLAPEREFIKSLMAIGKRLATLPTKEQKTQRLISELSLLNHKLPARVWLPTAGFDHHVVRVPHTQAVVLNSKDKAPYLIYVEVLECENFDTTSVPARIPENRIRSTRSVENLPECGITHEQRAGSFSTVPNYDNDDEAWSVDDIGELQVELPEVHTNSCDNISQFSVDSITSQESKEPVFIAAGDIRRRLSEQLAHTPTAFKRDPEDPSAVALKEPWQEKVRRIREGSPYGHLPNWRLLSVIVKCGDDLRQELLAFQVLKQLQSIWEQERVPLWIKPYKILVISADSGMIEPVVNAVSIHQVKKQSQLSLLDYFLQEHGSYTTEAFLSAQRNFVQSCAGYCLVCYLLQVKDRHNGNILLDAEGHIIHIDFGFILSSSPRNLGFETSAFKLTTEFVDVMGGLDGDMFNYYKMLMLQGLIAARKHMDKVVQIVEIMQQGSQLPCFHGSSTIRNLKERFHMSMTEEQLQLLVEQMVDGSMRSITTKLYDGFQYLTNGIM

PI 3-kinase gamma [3] = molecular target: T3, PI 3-kinase gamma (Homo sapiens, UniProt P48736); assay: TR-FRET Adapta assay, assay E; format: biochemical; settings: read-out: Assay E PI3Kγ IC50
mTOR = mTOR (Homo sapiens, UniProt P42345); assay: Lanthascreen kinase binding assay, assay G; settings: read-out: Assay G mTOR IC50
Protocol: Lanthascreen™ Kinase Binding Assay for mTOR (G)
Binding of an inhibitor to the kinase competes for binding with the tracer, resulting in a loss of FRET.
50 nL of compound dilutions were dispensed onto white 384-well small volume polystyrene plate.

PI 3-kinase gamma [4] = molecular target: T3, PI 3-kinase gamma; assay: Cellular U937 AKT assay K1 (MSD); format: cell-based; settings: U937 cells, K1 format; read-out: Assay K1 PI3Kγ IC50
PI 3-kinase delta [5] = molecular target: T4, PI 3-kinase delta (Homo sapiens, UniProt O00329); assay: TR-FRET Adapta assay, assay F; settings: read-out: Assay F PI3Kδ IC50
Protocol: TR-FRET Adapta Assay for PI 3-Kinase Gamma (E), PI 3-Kinase Delta (F)
The TR-FRET Adapta™ Universal Kinase Assay Kit was purchased from Invitrogen Corporation (Carlsbad/CA, USA) (Cat. No. PV5099).
PIK3CD substrate phosphatidylinositol (PI) was obtained from Invitrogen (vesicules consisting of 2 mM phosphatidylinositol (PI) in 50 mM HEPES pH7.5; Cat. No. PV5371). PIK3CG substrate phosphatidylinositol-4,5-bisphosphate (PIP(4,5)2 was obtained from Invitrogen (PIP2:PS large unilamellar vesicules consisting of 1 mM PIP2: 19 mM PS in 50 mM HEPES pH7.5, 3 mM MgCl2, 1 mM EGTA; Cat. No. PV5100).
Time-Resolved Fluorescence Resonance Energy Transfer (TR-FRET) is a technology based on energy transfer between two adjacent dyes, from an excited electron in one dye (the donor) to an electron of an adjacent dye (the acceptor) through resonance, then released as a photon. This energy transfer is detected by an increase in the fluorescence emission of the acceptor, and a decrease in the fluorescence emission of the donor. TR-FRET assays for protein kinases use a long-lifetime lanthanide Terbium or Europium chelates as the donor species which overcome interference from compound autofluorescence or light scatter from precipitated compounds, by introducing a delay after excitation by a flashlamp excitation source. Results are often expressed as a ratio of the intensities of the acceptor and donor fluorophores. The ratiometric nature of such a value corrects for differences in assay volumes between wells, as well as corrects for quenching effects due to colored compounds. The Adapta™ assay can be divided into two phases: a kinase reaction phase and an ADP detection phase. In the kinase reaction phase, all kinase reaction components are added to the well and the reaction is allowed to incubate for a set period of time specific for each kinase. […] In the presence of an inhibitor, the amount of ADP formed by the kinase reaction is reduced, and the resulting intact antibody-tracer interaction maintains a high TR-FRET signal.
50 nL of compound dilutions were dispensed onto white 384-well small volume polystyrene plate. Then 5 μL of either PI 3-kinase gamma or PI 3-kinase delta and lipid substrate (PI or PIP2:PS) followed by 5 μL of ATP (final assay volume 10 μL) are incubated at RT. The standard reaction buffer for the Adapta™ TR-FRET assay contained 10 mM Tris-HCl pH 7.5, 3 mM MgCl2, 50 mM NaCl, 1 mM DTT, 0.05% CHAPS 3-[(3-cholamidopropyl)dimethylammonio]-1-propanesulfonate).
Data are analyzed using Excel fit software or Graphpad Prism. IC50 values were derived by fitting a sigmoidal dose-response curve to a plot of assay readout over inhibitor concentration. All fits were performed with the program XLfit4 (ID Business Solutions, Guildford, UK). […] All fits were performed with the program XLfit4 (ID Business Solutions, Guildford, UK).

[6] = Microsomal clearance assay (M); settings: intrinsic clearance in rat liver microsomes
Protocol: The experiments were performed in 96-well glass plates at 37° C. on an automated Tecan EVO platform. Test compounds at a concentration of 10 mM in pure DMSO were diluted 1:1000 in water to 10 μM. […] Reactions were initiated by the addition of 150 μL of a cofactor solution containing 2 mM NADPH.

PI 3-kinase alpha [7] = molecular target: T1, PI 3-kinase alpha; assay: Cellular assay H1, p-Akt (S473) in Rat-1 cells, Surefire format; format: cell-based; settings: non-asterisked data: version H1 (Surefire format), Rat-1 cells; read-out: Assay H PI3Kα IC50
Target sequence in this assay (P42336 whole entry): as the sequence (P42336 whole entry) above
Target sequence in this assay (Q63787 whole entry partner): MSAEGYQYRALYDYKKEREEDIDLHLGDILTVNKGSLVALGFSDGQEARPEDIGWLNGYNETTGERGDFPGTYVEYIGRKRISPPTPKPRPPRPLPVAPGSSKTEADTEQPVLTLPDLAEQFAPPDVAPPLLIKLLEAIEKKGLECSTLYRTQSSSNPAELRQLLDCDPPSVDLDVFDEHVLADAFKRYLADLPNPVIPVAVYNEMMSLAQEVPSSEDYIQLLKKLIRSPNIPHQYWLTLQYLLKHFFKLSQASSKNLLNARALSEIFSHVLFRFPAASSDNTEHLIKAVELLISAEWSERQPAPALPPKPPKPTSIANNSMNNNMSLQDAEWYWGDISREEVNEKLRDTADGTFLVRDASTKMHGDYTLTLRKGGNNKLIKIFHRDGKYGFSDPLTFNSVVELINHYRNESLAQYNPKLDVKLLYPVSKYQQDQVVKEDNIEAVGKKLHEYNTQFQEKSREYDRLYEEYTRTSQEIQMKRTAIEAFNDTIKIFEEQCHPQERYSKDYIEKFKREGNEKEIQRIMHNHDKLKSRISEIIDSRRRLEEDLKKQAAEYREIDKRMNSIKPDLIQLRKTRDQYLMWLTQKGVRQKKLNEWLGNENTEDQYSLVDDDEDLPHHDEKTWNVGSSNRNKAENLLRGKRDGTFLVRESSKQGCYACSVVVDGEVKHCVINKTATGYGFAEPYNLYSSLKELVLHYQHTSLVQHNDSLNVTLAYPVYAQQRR
Description: Cellular Assays for PI 3-Kinase Alpha (H1), Beta (I1) and Delta (J1): Surefire Format
AlphaScreen (Amplified Luminescent Proximity Homogeneous Assay, ALPHA, Perkin Elmer) is a non-radioactive bead-based proximity assay technology to study biomolecular interactions in a homogenous microtiter plate format. The brand name SureFire denotes AlphaScreen assays that are adapted to quantify the phosphorylation of endogenous cellular proteins in cell lysates, by using matched antibody pairs, which consist of an anti-phospho-kinase and an anti-kinase antibody. The assay allows characterization of kinase signaling in cells as well as measurement of kinase inhibitor effects.
Using Rat-1 cells stably expressing myr-HA-tagged versions of the human PI3Kdelta, PI3Kalpha, or PI3Kbeta p110 catalytic subunit isoforms, the assay was developed as a two-plate protocol in a 384-well format.
For compound testing, the cells were seeded at a density of 4000 (Rat-1_PI3Kdelta), 7500 (Rat-1_PI3Kalpha), or 6200 (Rat-1_PI3Kbeta) cells in 20 μl complete growth medium into cell culture treated 384-well plates and were grown at 37° C./5% CO2/90% humidity for 24 h. Shortly before compound transfer, the complete medium was removed, 30 μl assay buffer (DMEM high glucose, 1×MEM NEAA, 10 mM HEPES, 2 mM L-glutamine, 0.1% (w/v) BSA) was added and 10 μl of the compound predilutions were transferred to the cells.

PI 3-kinase beta [8] = molecular target: T2, PI 3-kinase beta; assay: Cellular assay I1, p-Akt (S473) in Rat-1 cells, Surefire format; format: cell-based; settings: non-asterisked data: version I1 (Surefire format), Rat-1 cells; read-out: Assay I PI3Kβ IC50
Target sequence in this assay (P42338 whole entry): as the sequence (P42338 whole entry) above
Target sequence in this assay (Q63787 whole entry partner): as the sequence (Q63787 whole entry partner) above

PI 3-kinase delta [9] = molecular target: T4, PI 3-kinase delta; assay: Cellular assay J1, p-Akt (S473) in Rat-1 cells, Surefire format; format: cell-based; settings: non-asterisked data: version J1 (Surefire format), Rat-1 cells; read-out: Assay J PI3Kδ IC50

Cc1nc(-c2nc(-c3cc(S(=O)(=O)NCC(C)(C)O)ccc3C)cnc2N)c(C)s1 [Example 40, 3-(5-Amino-6-(2,5-dimethylthiazol-4-yl)pyrazin-2-yl)-N-(2-hydroxy-2-methylpropyl)-4-methylbenzenesulfonamide]
IC50 (PI 3-kinase alpha [1]): 0.76 µM
IC50 (PI 3-kinase beta [2]): 1.4 µM
IC50 (Vps34): > 10 µM
IC50 (PI 4-kinase beta): > 10 µM
IC50 (PI 3-kinase gamma [3]): 0.036 µM
IC50 (mTOR): 3.8 µM
IC50 (PI 3-kinase gamma [4]): 0.04 µM
IC50 (PI 3-kinase delta [5]): 0.84 µM
Assay M RLM CI(int) [6]: 92 µL/min/mg

Cc1noc(-c2nc(-c3cc(S(=O)(=O)NC[C@H]4C[C@@H](O)C4)ccc3C)cnc2N)n1 [Example 96, 3-(5-Amino-6-(3-methyl-1,2,4-oxadiazol-5-yl)pyrazin-2-yl)-N-(((1s,3s)-3-hydroxycyclobutyl)methyl)-4-methylbenzenesulfonamide]
IC50 (PI 3-kinase alpha [1]): 0.55 µM
IC50 (PI 3-kinase beta [2]): 3.35 µM
IC50 (PI 4-kinase beta): > 9.55 µM
IC50 (PI 3-kinase gamma [3]): 0.092 µM
IC50 (mTOR): 8.8 µM
IC50 (PI 3-kinase gamma [4]): 0.276 µM
IC50 (PI 3-kinase delta [5]): 0.55 µM
Assay M RLM CI(int) [6]: 62 µL/min/mg

COc1nc(-c2nc(-c3cc(S(=O)(=O)NCCC(C)(C)O)ccc3C)cnc2N)cs1 [Example 110, 3-(5-Amino-6-(2-methoxythiazol-4-yl)pyrazin-2-yl)-N-(3-hydroxy-3-methylbutyl)-4-methylbenzenesulfonamide]
IC50 (PI 3-kinase alpha [1]): 0.09 µM
IC50 (PI 3-kinase beta [2]): 0.52 µM
IC50 (Vps34): > 10 µM
IC50 (PI 4-kinase beta): > 10 µM
IC50 (PI 3-kinase gamma [3]): 0.01 µM
IC50 (mTOR): > 10 µM
IC50 (PI 3-kinase alpha [7]): 0.48 µM
IC50 (PI 3-kinase beta [8]): 1.73 µM
IC50 (PI 3-kinase delta [9]): 0.69 µM
IC50 (PI 3-kinase delta [5]): 0.32 µM
Assay M RLM CI(int) [6]: 254 µL/min/mg

Cc1ccc(S(=O)(=O)NCCC(C)(C)O)cc1-c1cnc(N)c(-c2cnn(CCC(C)C)c2)n1 [Example 119.26]
IC50 (PI 3-kinase alpha [1]): 0.25 µM
IC50 (PI 3-kinase beta [2]): 3.9 µM
IC50 (Vps34): > 9.1 µM
IC50 (PI 4-kinase beta): 1.79 µM
IC50 (PI 3-kinase gamma [3]): 0.037 µM
IC50 (mTOR): 5.87 µM
IC50 (PI 3-kinase alpha [7]): 0.7 µM
IC50 (PI 3-kinase beta [8]): 1.8 µM
IC50 (PI 3-kinase delta [9]): 0.51 µM
IC50 (PI 3-kinase delta [5]): 0.04 µM
Assay M RLM CI(int) [6]: 380 µL/min/mg

Cc1ccc(S(=O)(=O)NCCC(C)(C)O)cc1-c1cnc(N)c(-c2cnn(CC(C)C)c2)n1 [Example 119.32]
IC50 (PI 3-kinase alpha [1]): 0.26 µM
IC50 (PI 3-kinase beta [2]): 3.22 µM
IC50 (Vps34): > 9.1 µM
IC50 (PI 4-kinase beta): 2.67 µM
IC50 (PI 3-kinase gamma [3]): 0.011 µM
IC50 (mTOR): 6.04 µM
IC50 (PI 3-kinase alpha [7]): 1.68 µM
IC50 (PI 3-kinase beta [8]): 6.04 µM
IC50 (PI 3-kinase delta [9]): 0.79 µM
IC50 (PI 3-kinase delta [5]): 0.2 µM
Assay M RLM CI(int) [6]: 191 µL/min/mg

Cc1ccc(S(=O)(=O)N2CCC(F)(F)C2)cc1-c1cnc(N)c(-n2cncn2)n1 [Example 127.3]
IC50 (PI 3-kinase alpha [1]): 0.38 µM
IC50 (PI 3-kinase beta [2]): 3.2 µM
IC50 (Vps34): > 10 µM
IC50 (PI 4-kinase beta): 3.4 µM
IC50 (PI 3-kinase gamma [3]): 0.16 µM
IC50 (mTOR): > 10 µM
IC50 (PI 3-kinase gamma [4]): 0.371 µM
IC50 (PI 3-kinase delta [5]): > 10 µM

Cc1ccc(S(=O)(=O)NC[C@@H](C)O)cc1-c1cnc(N)c(-n2cncn2)n1 [Example 127.13]
IC50 (PI 3-kinase alpha [1]): 0.28 µM
IC50 (PI 3-kinase beta [2]): 0.53 µM
IC50 (Vps34): > 10 µM
IC50 (PI 4-kinase beta): 3.8 µM
IC50 (PI 3-kinase gamma [3]): 0.026 µM
IC50 (mTOR): 6.1 µM
IC50 (PI 3-kinase gamma [4]): 0.21 µM
IC50 (PI 3-kinase delta [5]): 1.1 µM

Cc1ccc(S(=O)(=O)NCC2CCCCO2)cc1-c1cnc(N)c(-n2cncn2)n1 (stereo not drawn) [Example 127.17]
IC50 (PI 3-kinase alpha [1]): 0.89 µM
IC50 (PI 3-kinase beta [2]): 1.2 µM
IC50 (Vps34): > 10 µM
IC50 (PI 4-kinase beta): 7.4 µM
IC50 (PI 3-kinase gamma [3]): 0.038 µM
IC50 (mTOR): > 10 µM
IC50 (PI 3-kinase gamma [4]): 0.392 µM
IC50 (PI 3-kinase delta [5]): 1.1 µM

Cc1ccc(S(=O)(=O)N[C@H]2CCOC2)cc1-c1cnc(N)c(-n2cncn2)n1 [Example 127.21]
IC50 (PI 3-kinase alpha [1]): 0.36 µM
IC50 (PI 3-kinase beta [2]): 1.9 µM
IC50 (Vps34): > 10 µM
IC50 (PI 4-kinase beta): > 10 µM
IC50 (PI 3-kinase gamma [3]): 0.098 µM
IC50 (mTOR): 3 µM
IC50 (PI 3-kinase gamma [4]): 0.32 µM
IC50 (PI 3-kinase delta [5]): 1.2 µM

Cc1ccc(S(=O)(=O)NC[C@@](C)(O)C(F)(F)F)cc1-c1cnc(N)c(-n2cncn2)n1 [Example 127.22]
IC50 (PI 3-kinase alpha [1]): 0.27 µM
IC50 (PI 3-kinase beta [2]): 0.97 µM
IC50 (Vps34): > 10 µM
IC50 (PI 4-kinase beta): 8.3 µM
IC50 (PI 3-kinase gamma [3]): 0.04 µM
IC50 (mTOR): 3.9 µM
IC50 (PI 3-kinase gamma [4]): 0.156 µM
IC50 (PI 3-kinase delta [5]): 0.5 µM

Cc1ccc(S(=O)(=O)NC[C@](C)(O)C(F)(F)F)cc1-c1cnc(N)c(-n2cncn2)n1 [Example 127.23]
IC50 (PI 3-kinase alpha [1]): 0.18 µM
IC50 (PI 3-kinase beta [2]): 0.58 µM
IC50 (Vps34): > 10 µM
IC50 (PI 4-kinase beta): 2.9 µM
IC50 (PI 3-kinase gamma [3]): 0.023 µM
IC50 (PI 3-kinase gamma [4]): 0.082 µM
IC50 (PI 3-kinase delta [5]): 0.36 µM

Cc1ccc(S(=O)(=O)NCCC(C)(O)C(F)(F)F)cc1-c1cnc(N)c(-n2cncn2)n1 (stereo not drawn) [Example 127.24]
IC50 (PI 3-kinase alpha [1]): 0.2 µM
IC50 (PI 3-kinase beta [2]): 0.79 µM
IC50 (Vps34): > 10 µM
IC50 (PI 4-kinase beta): 1.8 µM
IC50 (PI 3-kinase gamma [3]): 0.027 µM
IC50 (mTOR): 4.7 µM
IC50 (PI 3-kinase gamma [4]): 0.168 µM
IC50 (PI 3-kinase delta [5]): 0.32 µM

Cc1ccc(S(=O)(=O)NCCF)cc1-c1cnc(N)c(-n2cncn2)n1 [Example 127.28]
IC50 (PI 3-kinase alpha [1]): 0.45 µM
IC50 (PI 3-kinase beta [2]): 5.1 µM
IC50 (Vps34): > 10 µM
IC50 (PI 4-kinase beta): 8.4 µM
IC50 (PI 3-kinase gamma [3]): 0.16 µM
IC50 (mTOR): > 10 µM
IC50 (PI 3-kinase gamma [4]): 0.29 µM
IC50 (PI 3-kinase delta [5]): 3.5 µM

Cc1ccc(S(=O)(=O)NCCCF)cc1-c1cnc(N)c(-n2cncn2)n1 [Example 127.29]
IC50 (PI 3-kinase alpha [1]): 0.24 µM
IC50 (PI 3-kinase beta [2]): 1.8 µM
IC50 (Vps34): > 10 µM
IC50 (PI 4-kinase beta): 3.9 µM
IC50 (PI 3-kinase gamma [3]): 0.124 µM
IC50 (mTOR): > 10 µM
IC50 (PI 3-kinase gamma [4]): 0.131 µM
IC50 (PI 3-kinase delta [5]): 0.64 µM

Cc1ccc(S(=O)(=O)NCC(C)(C)N2CCOCC2)cc1-c1cnc(N)c(-n2cncn2)n1 [Example 127.32]
IC50 (PI 3-kinase alpha [1]): 1.8 µM
IC50 (PI 3-kinase beta [2]): 4.6 µM
IC50 (Vps34): > 10 µM
IC50 (PI 4-kinase beta): > 10 µM
IC50 (PI 3-kinase gamma [3]): 0.14 µM
IC50 (mTOR): 6.7 µM
IC50 (PI 3-kinase gamma [4]): 1.88 µM
IC50 (PI 3-kinase delta [5]): 1.2 µM

Cc1cc(-c2nc(-c3cc(S(=O)(=O)NCCCCCO)ccc3C)cnc2N)ccn1 [Example 129.3, 3-(5-amino-6-(2-methylpyridin-4-yl)pyrazin-2-yl)-N-(5-hydroxypentyl)-4-methylbenzenesulfonamide]
IC50 (PI 3-kinase alpha [1]): 0.49 µM
IC50 (PI 3-kinase beta [2]): 7.1 µM
IC50 (Vps34): > 9.1 µM
IC50 (PI 4-kinase beta): > 9.1 µM
IC50 (PI 3-kinase gamma [3]): 0.016 µM
IC50 (mTOR): > 9.1 µM
IC50 (PI 3-kinase alpha [7]): 7.6 µM
IC50 (PI 3-kinase beta [8]): > 10 µM
IC50 (PI 3-kinase delta [9]): 6.84 µM
IC50 (PI 3-kinase delta [5]): 0.34 µM
Assay M RLM CI(int) [6]: 139 µL/min/mg

Cc1cc(-c2nc(-c3cc(S(=O)(=O)NCC4CCCOC4)ccc3C)cnc2N)ccn1 (stereo not drawn) [Example 129.14, 3-(5-amino-6-(2-methylpyridin-4-yl)pyrazin-2-yl)-4-methyl-N-((tetrahydro-2H-pyran-3-yl)methyl)benzenesulfonamide]
IC50 (PI 3-kinase alpha [1]): 0.21 µM
IC50 (PI 3-kinase beta [2]): 4.5 µM
IC50 (Vps34): > 9.1 µM
IC50 (PI 4-kinase beta): > 9.1 µM
IC50 (PI 3-kinase gamma [3]): 0.059 µM
IC50 (mTOR): 5.7 µM
IC50 (PI 3-kinase alpha [7]): 2.96 µM
IC50 (PI 3-kinase beta [8]): 5.15 µM
IC50 (PI 3-kinase delta [9]): 2.96 µM
IC50 (PI 3-kinase delta [5]): 0.48 µM
Assay M RLM CI(int) [6]: 347 µL/min/mg

CCc1noc(-c2nc(-c3cc(S(=O)(=O)NC4CNC4)ccc3C)cnc2N)n1 [Example 137, 3-(5-Amino-6-(3-ethyl-1,2,4-oxadiazol-5-yl)pyrazin-2-yl)-N-(azetidin-3-yl)-4-methylbenzenesulfonamide]
IC50 (PI 3-kinase alpha [1]): 1.74 µM
IC50 (PI 3-kinase beta [2]): > 9.1 µM
IC50 (Vps34): > 9.1 µM
IC50 (PI 4-kinase beta): > 9.1 µM
IC50 (PI 3-kinase gamma [3]): 0.058 µM
IC50 (mTOR): 0.95 µM
IC50 (PI 3-kinase alpha [7]): > 10 µM
IC50 (PI 3-kinase beta [8]): > 10 µM
IC50 (PI 3-kinase delta [9]): 8.58 µM
IC50 (PI 3-kinase delta [5]): 0.33 µM
Assay M RLM CI(int) [6]: 28 µL/min/mg
